Results from patent publication US12655116B2, “Substituted isophthalic acid diamides” (Bayer Aktiengesellschaft, priority 2020, dated 2026).

Key:
ECHCG = assay: Pre-emergence herbicidal action against ECHCG; assay type: in vivo, Echinochloa crus-galli; conditions: Echinochloa crus-galli, 504 h
Method in brief: (§1)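 Herbicidal effect was assessed 3 weeks after treatment by visual comparison with untreated controls, 100% denoting dead plants. Aqueous WP or EC preparations had been applied at 600 to 800 l/ha with 0.2% wetting agent to the soil covering freshly sown seeds.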

CYPES [1] = assay: Pre-emergence herbicidal action against CYPES; assay type: in vivo; conditions: Cyperus esculentus, 504 h; for pest or weed control at 20 g/ha / pest or weed control at 80 g/ha: scored visually after 3 weeks, 100% = plants have died, 0% = like control plants
Source text: (§2) Seeds of monocotyledonous and dicotyledonous weed plants and crop plants are laid out in sandy loam soil in wood-fiber pots and covered with soil. The compounds of the invention, formulated in the form of wettable powders (WP) or as emulsion concentrates (EC), are then applied to the surface of the covering soil in the form of an aqueous suspension or emulsion at a water application rate equivalent to 600 to 800 l/ha, with addition of 0.2% wetting agent. After the treatment, the pots are placed in a greenhouse and kept under good growth conditions for the trial plants. The damage to the test plants is scored visually after a test period of 3 weeks by comparison with untreated controls (herbicidal activity in percent (%): 100% activity=the plants have died, 0% activity=like control plants). […] The tables below illustrate, in an illustrative manner, the post-emergence herbicidal action of the compounds of the invention, the herbicidal activity being stated in percent.

VIOTR = assay: Pre-emergence herbicidal action against VIOTR; assay type: in vivo, Viola tricolor; conditions: Viola tricolor, 504 h; for pest or weed control at 20 g/ha: dosage 20 g/ha; for pest or weed control at 80 g/ha: dosage 80 g/ha; for pest or weed control at 320 g/ha: dosage 320 g/ha
Method in brief: as §1

harmful plants = assay: Comparative experiments: herbicidal pre-emergence action versus compounds known from D1 (WO 2012/028579 A1); assay type: in vivo; parameters: key to Herbicidal action against ALOMY / Herbicidal action against AVEFA / Herbicidal action against SETVI / Herbicidal action against AMARE / Herbicidal action against STEME / Herbicidal action against VIOTR / Herbicidal action against HORMU / Herbicidal action against MATIN / Herbicidal action against ABUTH: % herbicidal activity: 0 = like control, 100 = plants died
Source text: as §2, with “percent. In the experiments that follow, herbicidal action of numerous inventive compounds and the structurally closest compounds known from D1 (WO 2012/028579 A1) were compared under the above-specified conditions by the pre-emergence and post-emergence method. The example numbers given in the tables relate to the compounds disclosed in the respective documents.” for “percent.”

CYPES [2] = assay: Post-emergence herbicidal action against CYPES; assay type: in vivo, Cyperus esculentus; conditions: visual assessment about 3 weeks after treatment, 100% = plants have died, 0% = like control plants
Procedure: Seeds of monocotyledonous and dicotyledonous weed and crop plants are laid out in sandy loam soil in wood-fiber pots, covered with soil and cultivated in a greenhouse under good growth conditions. 2 to 3 weeks after sowing, the test plants are treated at the one-leaf stage. The compounds of the invention, formulated in the form of wettable powders (WP) or as emulsion concentrates (EC), are then sprayed onto the green parts of the plants in the form of an aqueous suspension or emulsion at a water application rate equivalent to 600 to 800 l/ha, with addition of 0.2% wetting agent. After the test plants have been left to stand in the greenhouse under optimal growth conditions for about 3 weeks, the action of the preparations is assessed visually in comparison to untreated controls (herbicidal action in percent (%): 100% activity=the plants have died, 0% activity=like control plants). […] The tables below illustrate, in an illustrative manner, the post-emergence herbicidal action of the compounds of the invention, the herbicidal activity being stated in percent.

LOLRI = assay: Post-emergence herbicidal action against LOLRI; assay type: in vivo, Lolium rigidum; conditions: Lolium rigidum, 504 h; for pest or weed control at 20 g/ha: dosage 20 g/ha; for pest or weed control at 80 g/ha: dosage 80 g/ha
Method in brief: (§3)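 Post-emergence greenhouse test; one-leaf stage, 2–3 wk post-sowing, sandy loam. Foliar spray of WP/EC in water, 600–800 l/ha, +0.2% wetting agent. Visual % action at ~3 wk vs untreated (100% = plants dead).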

AMARE = assay: Post-emergence herbicidal action against AMARE; assay type: in vivo, Amaranthus retroflexus; conditions: Amaranthus retroflexus, 504 h, visual assessment about 3 weeks after treatment, 100% = plants have died, 0% = like control plants
Method in brief: as §3

PHBPU = assay: Pre-emergence herbicidal action against PHBPU; assay type: in vivo, Pharbitis purpurea; conditions: Ipomoea purpurea, 504 h; for pest or weed control at 80 g/ha: dosage 80 g/ha; for pest or weed control at 320 g/ha: dosage 320 g/ha
Method in brief: as §1

Row | Compound | pest or weed control at 80 g/ha (ECHCG) [%] | pest or weed control at 320 g/ha (ECHCG) [%] | pest or weed control at 20 g/ha (CYPES [1]) [%] | pest or weed control at 80 g/ha (CYPES [1]) [%] | pest or weed control at 320 g/ha (CYPES [1]) [%] | pest or weed control at 20 g/ha (VIOTR) [%] | pest or weed control at 80 g/ha (VIOTR) [%] | pest or weed control at 320 g/ha (VIOTR) [%] | Herbicidal action against ABUTH (harmful plants; 20 g a.i./ha) | Herbicidal action against AVEFA (harmful plants; 20 g a.i./ha) | Herbicidal action against MATIN (harmful plants; 20 g a.i./ha) | Herbicidal action against VIOTR (harmful plants; 20 g a.i./ha) | Post-emergence action at 80 g/ha against CYPES in % (CYPES [2]) [%] | pest or weed control at 20 g/ha (LOLRI) [%] | pest or weed control at 80 g/ha (LOLRI) [%] | pest or weed control at 20 g/ha (AMARE) [%] | pest or weed control at 80 g/ha (AMARE) [%] | pest or weed control at 80 g/ha (PHBPU) [%] | pest or weed control at 320 g/ha (PHBPU) [%] | also measured
1 | CCn1nnnc1NC(=O)c1ccc(C(F)(F)F)c(C(=O)NC)c1Cl [Example 2-129] | 100 | 100 | 100 | 100 | 100 | 100 | 100 | 100 | 100 | 100 | 100 | 100 | 90 | 100 | 100 | 100 | 100 | 90 | 100 | Herbicidal action against POLCO (harmful plants; 20 g a.i./ha, POLCO): 100; Herbicidal action against SETVI (harmful plants; 20 g a.i./ha, SETVI): 100
2 | CCCn1nnnc1NC(=O)c1ccc(C(F)(F)F)c(C(=O)NC)c1Cl [Example 3-129] | 80 | 100 |  | 100 | 100 | 100 | 100 | 100 |  |  |  |  |  |  | 80 | 100 | 100 | 90 | 100 | pest or weed control at 20 g/ha (PHBPU; dosage 20 g/ha): 80%
3 | Cn1nnnc1NC(=O)c1ccc(C(F)(F)F)c(C(N)=O)c1Cl [Example 1-338] | 90 | 100 |  | 90 | 100 |  | 80 | 100 |  |  |  |  | 90 |  | 80 | 90 | 100 |  | 80 | Post-emergence action at 20 g/ha against CYPES in % (CYPES [2]; 20 g/ha): 80%
4 | CNC(=O)c1c(C(F)(F)F)ccc(C(=O)Nc2nnnn2C)c1Cl [Example 1-129] | 100 | 100 | 90 | 90 | 100 | 100 | 100 | 100 | 100 | 100 | 100 | 100 | 80 | 100 | 100 | 100 | 100 | 90 | 100 | pest or weed control at 20 g/ha (ECHCG; 20 g/ha): 80%; Herbicidal action against AMARE (harmful plants; 20 g a.i./ha, AMARE): 100; Herbicidal action against STEME (harmful plants; 20 g a.i./ha): 100; Herbicidal action against ABUTH (harmful plants; 80 g a.i./ha): 100; Herbicidal action against ALOMY (harmful plants; 80 g a.i./ha, ALOMY): 100; Herbicidal action against AVEFA (harmful plants; 80 g a.i./ha): 100; Herbicidal action against MATIN (harmful plants; 80 g a.i./ha): 100; Herbicidal action against STEME (harmful plants; 80 g a.i./ha): 100; Herbicidal action against VIOTR (harmful plants; 80 g a.i./ha): 100; pest or weed control at 5 g/ha (LOLRI; dosage 5 g/ha): 80%
5 | CCn1nnnc1NC(=O)c1ccc(C(F)(F)F)c(C(N)=O)c1Cl [Example 2-338] | 90 | 100 |  | 90 | 100 |  | 100 | 100 |  |  |  |  |  |  | 90 | 100 | 100 |  | 80 | 
